# System: MDCK-II
# Experiment: Induction of claudin-1 mediated tight junction opening in MDCK-II cells assessed as increase in FITC-conjugated dextran incubated for 5 hrs relative to control
# Format: cell-based
# Set-up: concentration or dose not given beside the values
# Details: Canis lupus familiaris
row,SMILES,Activity [%]
1,CCCCCCCCCC(=O)N[C@@H](CC(C)C)C(=O)N[C@H](CCC(=O)O)C(=O)N[C@@H](CCC(N)=O)C(=O)N[C@@H](C(=O)N[C@H](CC(C)C)C(=O)N[C@@H](CCC(N)=O)C(=O)N[C@@H]1COC(=O)[C@H]([C@@H](C)CC)NC(=O)[C@@H](CCC(N)=O)NC(=O)[C@H](CC(C)C)NC(=O)[C@H](CC(C)C)NC(=O)[C@@H](CCC(N)=O)NC(=O)[C@@H](CC(C)C)NC(=O)[C@@H](C(C)C)NC1=O)C(C)C,17.6
2,CCCCCCCCCC(=O)N[C@@H](CC(C)C)C(=O)N[C@H](CCC(=O)O)C(=O)N[C@H](CCC(N)=O)C(=O)N[C@H](C(=O)N[C@H](CC(C)C)C(=O)N[C@@H](CCC(N)=O)C(=O)N[C@@H]1COC(=O)[C@H]([C@@H](C)CC)NC(=O)[C@@H](CCC(N)=O)NC(=O)[C@H](CC(C)C)NC(=O)[C@H](CC(C)C)NC(=O)[C@@H](CCC(N)=O)NC(=O)[C@@H](CC(C)C)NC(=O)[C@@H](C(C)C)NC1=O)C(C)C,8.6
3,CCCCCCCCCC(=O)N[C@@H](CC(C)C)C(=O)N[C@H](CCC(=O)O)C(=O)N[C@H](CCC(N)=O)C(=O)N[C@@H](C(=O)N[C@H](CC(C)C)C(=O)N[C@@H](CCC(N)=O)C(=O)N[C@H]1COC(=O)[C@H]([C@@H](C)CC)NC(=O)[C@@H](CCC(N)=O)NC(=O)[C@H](CC(C)C)NC(=O)[C@H](CC(C)C)NC(=O)[C@@H](CCC(N)=O)NC(=O)[C@@H](CC(C)C)NC(=O)[C@@H](C(C)C)NC1=O)C(C)C,2.3
4,CCCCCCCCCC(=O)N[C@@H](CC(C)C)C(=O)N[C@H](CCC(=O)O)C(=O)N[C@H](CCC(N)=O)C(=O)N[C@@H](C(=O)N[C@H](CC(C)C)C(=O)N[C@@H](CCC(N)=O)C(=O)N[C@@H]1COC(=O)[C@H]([C@@H](C)CC)NC(=O)[C@@H](CCC(N)=O)NC(=O)[C@H](CC(C)C)NC(=O)[C@H](CC(C)C)NC(=O)[C@@H](CCC(N)=O)NC(=O)[C@H](CC(C)C)NC(=O)[C@@H](C(C)C)NC1=O)C(C)C,3.8
5,CCCCCCC[C@@H](O)CC(=O)N[C@@H](CC(C)C)C(=O)N[C@H](CCC(=O)O)C(=O)N[C@H](CCC(N)=O)C(=O)N[C@@H](C(=O)N[C@H](CC(C)C)C(=O)N[C@@H](CCC(N)=O)C(=O)N[C@@H]1COC(=O)[C@H](C)NC(=O)[C@@H](CCC(N)=O)NC(=O)[C@H](CC(C)C)NC(=O)[C@H](CC(C)C)NC(=O)[C@@H](CCC(N)=O)NC(=O)[C@@H](CC(C)C)NC(=O)[C@@H](C(C)C)NC1=O)C(C)C,0.2
6,CCCCCCC[C@@H](O)CC(=O)N[C@@H](CC(C)C)C(=O)N[C@H](CCC(=O)O)C(=O)N[C@H](CCC(N)=O)C(=O)N[C@@H](C(=O)N[C@H](C)C(=O)N[C@@H](CCC(N)=O)C(=O)N[C@@H]1COC(=O)[C@H]([C@@H](C)CC)NC(=O)[C@@H](CCC(N)=O)NC(=O)[C@H](CC(C)C)NC(=O)[C@H](CC(C)C)NC(=O)[C@@H](CCC(N)=O)NC(=O)[C@@H](CC(C)C)NC(=O)[C@@H](C(C)C)NC1=O)C(C)C,9.2
7,CCCCCCCCCC(=O)N[C@@H](CC(C)C)C(=O)N[C@H](CCC(=O)O)C(=O)N[C@H](CCC(N)=O)C(=O)N[C@@H](C(=O)N[C@H](CC(C)C)C(=O)N[C@@H](CCC(N)=O)C(=O)N[C@@H]1COC(=O)[C@H]([C@@H](C)CC)NC(=O)[C@@H](CCC(N)=O)NC(=O)[C@@H](CC(C)C)NC(=O)[C@H](CC(C)C)NC(=O)[C@@H](CCC(N)=O)NC(=O)[C@@H](CC(C)C)NC(=O)[C@@H](C(C)C)NC1=O)C(C)C,-2.3
8,CCCCCCCCCCCCC(=O)N[C@@H](CC(C)C)C(=O)N[C@H](CCC(=O)O)C(=O)N[C@H](CCC(N)=O)C(=O)N[C@@H](C(=O)N[C@H](CC(C)C)C(=O)N[C@@H](CCC(N)=O)C(=O)N[C@@H]1COC(=O)[C@H]([C@@H](C)CC)NC(=O)[C@@H](CCC(N)=O)NC(=O)[C@H](CC(C)C)NC(=O)[C@H](CC(C)C)NC(=O)[C@@H](CCC(N)=O)NC(=O)[C@@H](CC(C)C)NC(=O)[C@@H](C(C)C)NC1=O)C(C)C,33.3
9,CCCCCCCCCC(=O)N[C@@H](CC(C)C)C(=O)N[C@H](CCC(=O)O)C(=O)N[C@H](CCC(N)=O)C(=O)N[C@@H](C(=O)N[C@H](CC(C)C)C(=O)N[C@@H](CCC(N)=O)C(=O)N[C@@H]1COC(=O)[C@@H]([C@@H](C)CC)NC(=O)[C@@H](CCC(N)=O)NC(=O)[C@H](CC(C)C)NC(=O)[C@H](CC(C)C)NC(=O)[C@@H](CCC(N)=O)NC(=O)[C@@H](CC(C)C)NC(=O)[C@@H](C(C)C)NC1=O)C(C)C,18.3
10,CCCCCCC[C@@H](O)CC(=O)N[C@@H](C)C(=O)N[C@H](CCC(=O)O)C(=O)N[C@H](CCC(N)=O)C(=O)N[C@@H](C(=O)N[C@H](CC(C)C)C(=O)N[C@@H](CCC(N)=O)C(=O)N[C@@H]1COC(=O)[C@H]([C@@H](C)CC)NC(=O)[C@@H](CCC(N)=O)NC(=O)[C@H](CC(C)C)NC(=O)[C@H](CC(C)C)NC(=O)[C@@H](CCC(N)=O)NC(=O)[C@@H](CC(C)C)NC(=O)[C@@H](C(C)C)NC1=O)C(C)C,31.8
11,CCCCCCCCCC(=O)N[C@@H](CC(C)C)C(=O)N[C@H](CCC(=O)O)C(=O)N[C@H](CCC(N)=O)C(=O)N[C@@H](C(=O)N[C@H](CC(C)C)C(=O)N[C@@H](CCC(N)=O)C(=O)N[C@@H]1COC(=O)[C@H]([C@@H](C)CC)NC(=O)[C@@H](CCC(N)=O)NC(=O)[C@H](CC(C)C)NC(=O)[C@@H](CC(C)C)NC(=O)[C@@H](CCC(N)=O)NC(=O)[C@@H](CC(C)C)NC(=O)[C@@H](C(C)C)NC1=O)C(C)C,-2
12,CC[C@H](C)[C@@H]1NC(=O)[C@@H](CCC(N)=O)NC(=O)[C@H](CC(C)C)NC(=O)[C@H](CC(C)C)NC(=O)[C@@H](CCC(N)=O)NC(=O)[C@@H](CC(C)C)NC(=O)[C@@H](C(C)C)NC(=O)[C@H](NC(=O)[C@H](CCC(N)=O)NC(=O)[C@@H](CC(C)C)NC(=O)[C@H](NC(=O)[C@@H](CCC(N)=O)NC(=O)[C@@H](CCC(=O)O)NC(=O)[C@H](CC(C)C)NC(=O)CCO)C(C)C)COC1=O,-3
13,CCCCCCC[C@@H](O)CC(=O)N[C@@H](CC(C)C)C(=O)N[C@H](C)C(=O)N[C@H](CCC(N)=O)C(=O)N[C@@H](C(=O)N[C@H](CC(C)C)C(=O)N[C@@H](CCC(N)=O)C(=O)N[C@@H]1COC(=O)[C@H]([C@@H](C)CC)NC(=O)[C@@H](CCC(N)=O)NC(=O)[C@H](CC(C)C)NC(=O)[C@H](CC(C)C)NC(=O)[C@@H](CCC(N)=O)NC(=O)[C@@H](CC(C)C)NC(=O)[C@@H](C(C)C)NC1=O)C(C)C,30.7
14,CC[C@H](C)[C@@H]1NC(=O)[C@@H](CCC(N)=O)NC(=O)[C@H](CC(C)C)NC(=O)[C@H](CC(C)C)NC(=O)[C@@H](CCC(N)=O)NC(=O)[C@@H](CC(C)C)NC(=O)[C@@H](C(C)C)NC(=O)[C@H](NC(=O)[C@H](CCC(N)=O)NC(=O)[C@@H](CC(C)C)NC(=O)[C@H](NC(=O)[C@@H](CCC(N)=O)NC(=O)[C@@H](CCC(=O)O)NC(=O)[C@H](CC(C)C)NC(=O)CCCC(C)C)C(C)C)COC1=O,2.6
15,CCCCCCC[C@@H](O)CC(=O)N[C@@H](CC(C)C)C(=O)N[C@H](CCC(=O)O)C(=O)N[C@H](CCC(N)=O)C(=O)N[C@H](C)C(=O)N[C@H](CC(C)C)C(=O)N[C@@H](CCC(N)=O)C(=O)N[C@@H]1COC(=O)[C@H]([C@@H](C)CC)NC(=O)[C@@H](CCC(N)=O)NC(=O)[C@H](CC(C)C)NC(=O)[C@H](CC(C)C)NC(=O)[C@@H](CCC(N)=O)NC(=O)[C@@H](CC(C)C)NC(=O)[C@@H](C(C)C)NC1=O,14.4
16,CC[C@H](C)[C@@H]1NC(=O)[C@@H](CCC(N)=O)NC(=O)[C@H](CC(C)C)NC(=O)[C@H](CC(C)C)NC(=O)[C@@H](CCC(N)=O)NC(=O)[C@@H](CC(C)C)NC(=O)[C@@H](C(C)C)NC(=O)[C@H](NC(=O)[C@H](CCC(N)=O)NC(=O)[C@@H](CC(C)C)NC(=O)[C@H](NC(=O)[C@@H](CCC(N)=O)NC(=O)[C@@H](CCC(=O)O)NC(=O)[C@H](CC(C)C)NC(C)=O)C(C)C)COC1=O,-2.8
17,CCCCCCC[C@@H](O)CC(=O)N[C@@H](CC(C)C)C(=O)N[C@H](CCC(=O)O)C(=O)N[C@H](CCC(N)=O)C(=O)N[C@@H](C(=O)N[C@H](CC(C)C)C(=O)N[C@@H](CCC(N)=O)C(=O)N[C@@H]1COC(=O)[C@H]([C@@H](C)CC)NC(=O)[C@@H](CCC(N)=O)NC(=O)[C@H](CC(C)C)NC(=O)[C@H](CC(C)C)NC(=O)[C@@H](CCC(N)=O)NC(=O)[C@@H](CC(C)C)NC(=O)[C@@H](C)NC1=O)C(C)C,22.3
18,CCCCCCC[C@@H](O)CC(=O)N[C@@H](CC(C)C)C(=O)N[C@H](CCC(=O)O)C(=O)N[C@H](CCC(N)=O)C(=O)N[C@@H](C(=O)N[C@H](CC(C)C)C(=O)N[C@@H](CCC(N)=O)C(=O)N[C@@H]1COC(=O)[C@H]([C@@H](C)CC)NC(=O)[C@@H](CCC(N)=O)NC(=O)[C@H](CC(C)C)NC(=O)[C@H](C)NC(=O)[C@@H](CCC(N)=O)NC(=O)[C@@H](CC(C)C)NC(=O)[C@@H](C(C)C)NC1=O)C(C)C,12.7

# Same assay, conditions: Canis lupus familiaris, filed as opener
row,SMILES,Activity [%]
1,CCCCCCCCCC(=O)N[C@@H](CC(C)C)C(=O)N[C@H](CCC(=O)O)C(=O)N[C@H](CCC(N)=O)C(=O)N[C@@H](C(=O)N[C@@H](CC(C)C)C(=O)N[C@@H](CCC(N)=O)C(=O)N[C@@H]1COC(=O)[C@H]([C@@H](C)CC)NC(=O)[C@@H](CCC(N)=O)NC(=O)[C@H](CC(C)C)NC(=O)[C@H](CC(C)C)NC(=O)[C@@H](CCC(N)=O)NC(=O)[C@@H](CC(C)C)NC(=O)[C@@H](C(C)C)NC1=O)C(C)C,48.8
2,CCCCCCC[C@@H](O)CC(=O)N[C@@H](CC(C)C)C(=O)N[C@H](CCC(=O)O)C(=O)N[C@H](CCC(N)=O)C(=O)N[C@@H](C(=O)N[C@H](CC(C)C)C(=O)N[C@@H](CCC(N)=O)C(=O)N[C@@H]1COC(=O)[C@H]([C@@H](C)CC)NC(=O)[C@@H](C)NC(=O)[C@H](CC(C)C)NC(=O)[C@H](CC(C)C)NC(=O)[C@@H](CCC(N)=O)NC(=O)[C@@H](CC(C)C)NC(=O)[C@@H](C(C)C)NC1=O)C(C)C,122
3,CCCCCCC[C@@H](O)CC(=O)N[C@@H](CC(C)C)C(=O)N[C@H](CCC(=O)O)C(=O)N[C@H](CCC(N)=O)C(=O)N[C@@H](C(=O)N[C@H](CC(C)C)C(=O)N[C@@H](C)C(=O)N[C@@H]1COC(=O)[C@H]([C@@H](C)CC)NC(=O)[C@@H](CCC(N)=O)NC(=O)[C@H](CC(C)C)NC(=O)[C@H](CC(C)C)NC(=O)[C@@H](CCC(N)=O)NC(=O)[C@@H](CC(C)C)NC(=O)[C@@H](C(C)C)NC1=O)C(C)C,94.8

# Reference: ChEMBL document CHEMBL5331117, “X-Ray Conformation and Structure-Activity Relationships of MA026, a Reversible Tight Junction Opener” (J Med Chem, 2023)
